Measurements: paper PMC5731860, “Novel allylated monocarbonyl analogs of curcumin induce mitotic arrest and apoptosis by reactive oxygen species-mediated endoplasmic reticulum stress and inhibition of STAT3” (Oncotarget, 2017)

System: HT-29
Experiment: MTT assay, growth inhibition
Type: cell-based
Details: Homo sapiens, HT-29, 24 h
Procedure: (§1) First, we investigated whether allylated MAC alter the viability or have cytotoxic effects on cells in culture. We have performed MTT tetrazolium reduction assay following exposure of cancer cells (gastric cancer, BGC823 and SGC-7901; colon cancer, HT-29, HCT-116 and SW-480) and normal gastric epithelial cells (GES-1) to all 20 allylated MAC at a concentration of 20 μM for 24 h. […] In addition, we also found notable solubility and stability profile of these compounds (Supplementary Figure 1).
(§2) Cells were plated at a density of 8 × 10^3 cells/well in 96-well plates and allowed to attach overnight. Stock solutions of allylated MAC and curcumin were prepared in DMSO and diluted in culture media to obtain appropriate concentration. Cells were treated for 24 h and 48 h, following which, 20 μL of 5 mg/ml MTT reagent was added. Purple formazan product was dissolved by the addition of 100 μL DMSO to each well. Absorbance was then monitored at 490 nm using a plate reader (Molecular Device Spectra MAX190, USA). Percentage of cytotoxicity was determined using the following formula: Growth inhibition (%) = (OD of control−OD of test/OD of control×100%).

Structure (SMILES) | inhibition at 20 µM [%]
C=CCc1cc(/C=C2\CN(C3CC3)C/C(=C\c3ccc(N4CCOCC4)cc3)C2=O)ccc1O [CA12] | < 60
C=CCc1cc(/C=C2\CN(C3CC3)C/C(=C\c3ccc(N(CC)CC)cc3)C2=O)ccc1O [CA14] | < 60
C=CCc1cc(/C=C2\CN(C3CC3)C/C(=C\c3ccc(N(C)C)cc3)C2=O)ccc1O [CA15] | < 60
C=CCc1cc(/C=C2\CN(C3CC3)C/C(=C\c3cc(OC)c(OC)cc3OC)C2=O)ccc1O [CA16] | 68 ± 1.39
C=CCc1cc(/C=C2\CN(C3CC3)C/C(=C\c3ccc(OC)c(OC)c3)C2=O)ccc1O [CA17] | < 60
C=CCc1cc(/C=C2\CN(C3CC3)C/C(=C\c3c(OC)cc(OC)cc3OC)C2=O)ccc1O [CA18] | 63 ± 4.2
C=CCc1cc(/C=C2\CN(C3CC3)C/C(=C\c3ccc(OC)cc3OC)C2=O)ccc1O [CA19] | 62.6 ± 7.39
C=CCc1cc(/C=C2\CN(C3CC3)C/C(=C\c3ccc(OC(C)(C)C)cc3)C2=O)ccc1O [CA20] | 71.16 ± 0.6

System: SGC-7901 xenograft tumors
Experiment: In vivo mouse xenograft model, tumor growth
Parameters: species or system mice
Details: ip once a day for 12 days, CA10 10 and 20 mg/kg, curcumin 50 mg/kg
Source text: (§3) All animal experiments complied with the Wenzhou Medical University's Policy on the Care and Use of Laboratory Animals. Protocols for animal studies were approved by the Wenzhou Medical University Animal Policy and Welfare Committee (Approved documents: 2016/201). Athymic BALB/c nu/nu female mice weighing 20–22 g (6 weeks old) were purchased from Vital River Laboratories (Beijing, China). Animals were housed (6 animals/gage) at a constant room temperature with a 12/12-hr light/dark cycle and fed a standard rodent diet and water ad libitum. SGC-7901 cells were injected subcutaneously into the right flank of each mice at 1 × 10^6 cells in 0.1 mL PBS. Once tumors reached a volume of 100–200 mm^3, mice were randomly divided into 4 groups. These groups included mice treated with 10 mg/kg CA10, mice treated with 20 mg/kg CA10, mice treated 50 mg/kg curcumin, and control mice receiving vehicle alone. All treatments were carried out with intraperitoneal injections. The body weight and tumor volumes were monitored and determined by measuring length (l) and width (w) and calculated as tumor volume (V = 0.5 × l × w2) at the indicated time points. At the end of treatment period, mice were sacrificed and the tumors were removed and weighed for histological analyses and proteins measurement studies.

Structure (SMILES) | tumor weight and volume
COc1cc(/C=C/C(=O)CC(=O)/C=C/c2ccc(O)c(OC)c2)ccc1O [curcumin] | significant reduction

System: GES-1
Experiment: MTT assay, growth inhibition in normal gastric epithelial cells
Type: cell-based, human
Details: 20 μM, 24 h
Procedure: as §1, §2

Structure (SMILES) | inhibition of the normal epithelial cells (selective cytotoxicity in cancer cell lines), in words
C=CCc1cc(/C=C2\CN(C3CC3)C/C(=C\c3ccc(N(C)C)cc3)C2=O)ccc1O [CA15] | minimal inhibition
C=CCc1cc(/C=C2\CN(C3CC3)C/C(=C\c3ccc(OC(C)(C)C)cc3)C2=O)ccc1O [CA20] | minimal inhibition

Same assay, conditions: Homo sapiens, GES1, 24 h, normal gastric epithelial cells

Structure (SMILES) | inhibition at 20 µM [%]
C=CCc1cc(/C=C2\CN(C3CC3)C/C(=C\c3ccc(N4CCOCC4)cc3)C2=O)ccc1O [CA12] | 40 ± 3.29
C=CCc1cc(/C=C2\CN(C3CC3)C/C(=C\c3ccc(N(CC)CC)cc3)C2=O)ccc1O [CA14] | 47.9 ± 8.09
C=CCc1cc(/C=C2\CN(C3CC3)C/C(=C\c3ccc(N(C)C)cc3)C2=O)ccc1O [CA15] | 23.8 ± 4.79
C=CCc1cc(/C=C2\CN(C3CC3)C/C(=C\c3cc(OC)c(OC)cc3OC)C2=O)ccc1O [CA16] | 41.3 ± 5.22
C=CCc1cc(/C=C2\CN(C3CC3)C/C(=C\c3ccc(OC)c(OC)c3)C2=O)ccc1O [CA17] | 61.9 ± 1.41
C=CCc1cc(/C=C2\CN(C3CC3)C/C(=C\c3c(OC)cc(OC)cc3OC)C2=O)ccc1O [CA18] | 57.8 ± 3.58
C=CCc1cc(/C=C2\CN(C3CC3)C/C(=C\c3ccc(OC)cc3OC)C2=O)ccc1O [CA19] | 62 ± 4.58
C=CCc1cc(/C=C2\CN(C3CC3)C/C(=C\c3ccc(OC(C)(C)C)cc3)C2=O)ccc1O [CA20] | 25.8 ± 1.86

System: not listed separately
Experiment: Body weight of xenograft mice
Type: in vivo
Details: 0–12 days, ip once a day; CA10 10 and 20 mg/kg, curcumin 50 mg/kg
Source text: as §3

Structure (SMILES) | body weight of mice
COc1cc(/C=C/C(=O)CC(=O)/C=C/c2ccc(O)c(OC)c2)ccc1O [curcumin] | no change

System: HCT-116
Experiment: MTT assay, growth inhibition
Type: cell-based, human
Details: 20 μM, 24 h
Procedure: as §1, §2

Structure (SMILES) | % Of growth inhibition HCT-116 [%]
C=CCc1cc(/C=C2\CN(C3CC3)C/C(=C\c3ccc(N4CCOCC4)cc3)C2=O)ccc1O [CA12] | 70.99 ± 3.12
C=CCc1cc(/C=C2\CN(C3CC3)C/C(=C\c3ccc(N(CC)CC)cc3)C2=O)ccc1O [CA14] | 52.10 ± 9.05
C=CCc1cc(/C=C2\CN(C3CC3)C/C(=C\c3ccc(N(C)C)cc3)C2=O)ccc1O [CA15] | 43.17 ± 8.26
C=CCc1cc(/C=C2\CN(C3CC3)C/C(=C\c3ccc(OC(C)(C)C)cc3)C2=O)ccc1O [CA20] | 73.62 ± 4.23

Same assay, conditions: Homo sapiens, HCT-116, 24 h

Structure (SMILES) | inhibition at 20 µM [%]
C=CCc1cc(/C=C2\CN(C3CC3)C/C(=C\c3ccc(N4CCOCC4)cc3)C2=O)ccc1O [CA12] | 70
C=CCc1cc(/C=C2\CN(C3CC3)C/C(=C\c3ccc(N(CC)CC)cc3)C2=O)ccc1O [CA14] | 55
C=CCc1cc(/C=C2\CN(C3CC3)C/C(=C\c3ccc(N(C)C)cc3)C2=O)ccc1O [CA15] | 55
C=CCc1cc(/C=C2\CN(C3CC3)C/C(=C\c3cc(OC)c(OC)cc3OC)C2=O)ccc1O [CA16] | 60.1 ± 2.02
C=CCc1cc(/C=C2\CN(C3CC3)C/C(=C\c3ccc(OC)c(OC)c3)C2=O)ccc1O [CA17] | 78.1 ± 64
C=CCc1cc(/C=C2\CN(C3CC3)C/C(=C\c3c(OC)cc(OC)cc3OC)C2=O)ccc1O [CA18] | 74.8 ± 1.25
C=CCc1cc(/C=C2\CN(C3CC3)C/C(=C\c3ccc(OC)cc3OC)C2=O)ccc1O [CA19] | 78.1 ± 4.72
C=CCc1cc(/C=C2\CN(C3CC3)C/C(=C\c3ccc(OC(C)(C)C)cc3)C2=O)ccc1O [CA20] | 70

System: SW-480
Experiment: MTT assay, growth inhibition
Type: cell-based, human
Details: 20 μM, 24 h
Procedure: as §1, §2

Structure (SMILES) | % Of growth inhibition SW-480 [%]
C=CCc1cc(/C=C2\CN(C3CC3)C/C(=C\c3cc(OC)c(OC)cc3OC)C2=O)ccc1O [CA16] | 35.69 ± 5.91
C=CCc1cc(/C=C2\CN(C3CC3)C/C(=C\c3c(OC)cc(OC)cc3OC)C2=O)ccc1O [CA18] | 56.88 ± 3.82

Same assay, conditions: Homo sapiens, SW480, 24 h

Structure (SMILES) | inhibition at 20 µM [%]
C=CCc1cc(/C=C2\CN(C3CC3)C/C(=C\c3ccc(N4CCOCC4)cc3)C2=O)ccc1O [CA12] | 33.8 ± 1.98
C=CCc1cc(/C=C2\CN(C3CC3)C/C(=C\c3ccc(N(CC)CC)cc3)C2=O)ccc1O [CA14] | 57 ± 3.57
C=CCc1cc(/C=C2\CN(C3CC3)C/C(=C\c3ccc(N(C)C)cc3)C2=O)ccc1O [CA15] | 36.3 ± 1.7
C=CCc1cc(/C=C2\CN(C3CC3)C/C(=C\c3cc(OC)c(OC)cc3OC)C2=O)ccc1O [CA16] | 33.8 to 57
C=CCc1cc(/C=C2\CN(C3CC3)C/C(=C\c3ccc(OC)c(OC)c3)C2=O)ccc1O [CA17] | 64.7 ± 4.65
C=CCc1cc(/C=C2\CN(C3CC3)C/C(=C\c3ccc(OC)cc3OC)C2=O)ccc1O [CA19] | 60.4 ± 3.1
C=CCc1cc(/C=C2\CN(C3CC3)C/C(=C\c3ccc(OC(C)(C)C)cc3)C2=O)ccc1O [CA20] | 61.5 ± 6.1

System: BGC-823
Experiment: MTT assay, growth inhibition / cell viability
Type: cell-based
Details: Homo sapiens, BGC-823, 20 μM, 24 h
Procedure: as §1, §2

Structure (SMILES) | inhibition at 20 µM [%]
C=CCc1cc(/C=C2\CN(C3CC3)C/C(=C\c3ccc(N4CCOCC4)cc3)C2=O)ccc1O [CA12] | 40.1 ± 4.65
C=CCc1cc(/C=C2\CN(C3CC3)C/C(=C\c3ccc(N(CC)CC)cc3)C2=O)ccc1O [CA14] | 40.4 ± 5.7
C=CCc1cc(/C=C2\CN(C3CC3)C/C(=C\c3ccc(N(C)C)cc3)C2=O)ccc1O [CA15] | 50.6 ± 2.49
C=CCc1cc(/C=C2\CN(C3CC3)C/C(=C\c3cc(OC)c(OC)cc3OC)C2=O)ccc1O [CA16] | 60.7 ± 5.64
C=CCc1cc(/C=C2\CN(C3CC3)C/C(=C\c3ccc(OC)c(OC)c3)C2=O)ccc1O [CA17] | 37 ± 4.35
C=CCc1cc(/C=C2\CN(C3CC3)C/C(=C\c3c(OC)cc(OC)cc3OC)C2=O)ccc1O [CA18] | 57.96 ± 0.01
C=CCc1cc(/C=C2\CN(C3CC3)C/C(=C\c3ccc(OC)cc3OC)C2=O)ccc1O [CA19] | 59.2 ± 3.67
C=CCc1cc(/C=C2\CN(C3CC3)C/C(=C\c3ccc(OC(C)(C)C)cc3)C2=O)ccc1O [CA20] | 56.8 ± 0.81

Same assay, conditions: Homo sapiens, BGC-823, 24 h

Structure (SMILES) | IC50 [µM]
COc1cc(/C=C/C(=O)CC(=O)/C=C/c2ccc(O)c(OC)c2)ccc1O [curcumin] | 54.4 ± 3.92

Same assay, conditions: Homo sapiens, BGC-823, 48 h

Structure (SMILES) | IC50 [µM]
COc1cc(/C=C/C(=O)CC(=O)/C=C/c2ccc(O)c(OC)c2)ccc1O [curcumin] | 38.2 ± 1.02

System: SGC-7901
Experiment: MTT assay, growth inhibition / cell viability
Type: cell-based
Details: Homo sapiens, SGC-7901, 24 h
Procedure: as §1, §2

Structure (SMILES) | IC50 [µM]
COc1cc(/C=C/C(=O)CC(=O)/C=C/c2ccc(O)c(OC)c2)ccc1O [curcumin] | 62.2 ± 2.08

Same assay, conditions: Homo sapiens, SGC-7901, 24 h, 20 μM, 24 h

Structure (SMILES) | inhibition at 20 µM [%]
C=CCc1cc(/C=C2\CN(C3CC3)C/C(=C\c3ccc(N4CCOCC4)cc3)C2=O)ccc1O [CA12] | 52.5 ± 5.54
C=CCc1cc(/C=C2\CN(C3CC3)C/C(=C\c3ccc(N(CC)CC)cc3)C2=O)ccc1O [CA14] | > 80
C=CCc1cc(/C=C2\CN(C3CC3)C/C(=C\c3ccc(N(C)C)cc3)C2=O)ccc1O [CA15] | 50.5 ± 4.3
C=CCc1cc(/C=C2\CN(C3CC3)C/C(=C\c3cc(OC)c(OC)cc3OC)C2=O)ccc1O [CA16] | 60 ± 7.35
C=CCc1cc(/C=C2\CN(C3CC3)C/C(=C\c3ccc(OC)c(OC)c3)C2=O)ccc1O [CA17] | 73.7 ± 1.26
C=CCc1cc(/C=C2\CN(C3CC3)C/C(=C\c3c(OC)cc(OC)cc3OC)C2=O)ccc1O [CA18] | 61.3 ± 4.02
C=CCc1cc(/C=C2\CN(C3CC3)C/C(=C\c3ccc(OC)cc3OC)C2=O)ccc1O [CA19] | 76.6 ± 5.18
C=CCc1cc(/C=C2\CN(C3CC3)C/C(=C\c3ccc(OC(C)(C)C)cc3)C2=O)ccc1O [CA20] | > 80

Same assay, conditions: Homo sapiens, SGC-7901, 48 h

Structure (SMILES) | IC50 [µM]
COc1cc(/C=C/C(=O)CC(=O)/C=C/c2ccc(O)c(OC)c2)ccc1O [curcumin] | 36.9 ± 3.17
